From PubChem BioAssay (NCI)
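Cultured in 96-well plates, cells were exposed to test compound for 48 hours across five concentrations. GI50 marks 50% less growth. Definition used: TGI = concentration required for complete inhibition of growth.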

Tests used:
Experiment in all cases: DTP human tumour cell line panel, 48 h
786-0 renal = test system: 786-0 renal
A498 renal = test system: A498 renal
A549 NSCLC = test system: A549 NSCLC
ACHN renal = test system: ACHN renal
BT-549 breast = test system: BT-549 breast
CAKI-1 renal = test system: CAKI-1 renal
CCRF-CEM leukemia = test system: CCRF-CEM leukemia
COLO 205 colon = test system: COLO 205 colon
DU-145 prostate = test system: DU-145 prostate
EKVX NSCLC = test system: EKVX NSCLC
HCC-2998 colon = test system: HCC-2998 colon
HCT-116 colon = test system: HCT-116 colon
HCT-15 colon = test system: HCT-15 colon
HL-60(TB) leukemia = test system: HL-60(TB) leukemia
HOP-62 NSCLC = test system: HOP-62 NSCLC
HOP-92 NSCLC = test system: HOP-92 NSCLC
HS 578T breast = test system: HS 578T breast
HT29 colon = test system: HT29 colon
IGROV1 ovarian = test system: IGROV1 ovarian
K-562 leukemia = test system: K-562 leukemia
KM12 colon = test system: KM12 colon
LOX IMVI melanoma = test system: LOX IMVI melanoma
M14 melanoma = test system: M14 melanoma
MALME-3M melanoma = test system: MALME-3M melanoma
MCF7 breast = test system: MCF7 breast
MDA-MB-231 breast = test system: MDA-MB-231 breast
MDA-MB-435 = test system: MDA-MB-435
MOLT-4 leukemia = test system: MOLT-4 leukemia
NCI-H226 lung = test system: NCI-H226 lung
NCI-H23 lung = test system: NCI-H23 lung
NCI-H460 lung = test system: NCI-H460 lung
NCI-H522 lung = test system: NCI-H522 lung
NCI/ADR-RES ovarian = test system: NCI/ADR-RES ovarian
OVCAR-3 ovarian = test system: OVCAR-3 ovarian
OVCAR-4 ovarian = test system: OVCAR-4 ovarian
OVCAR-5 ovarian = test system: OVCAR-5 ovarian
OVCAR-8 ovarian = test system: OVCAR-8 ovarian
PC-3 prostate = test system: PC-3 prostate
RPMI-8226 leukemia = test system: RPMI-8226 leukemia
RXF 393 renal = test system: RXF 393 renal
SF-268 CNS = test system: SF-268 CNS
SF-295 CNS = test system: SF-295 CNS
SF-539 CNS = test system: SF-539 CNS
SK-MEL-2 melanoma = test system: SK-MEL-2 melanoma
SK-MEL-28 melanoma = test system: SK-MEL-28 melanoma
SK-MEL-5 melanoma = test system: SK-MEL-5 melanoma
SK-OV-3 ovarian = test system: SK-OV-3 ovarian
SN12C renal = test system: SN12C renal
SNB-19 CNS = test system: SNB-19 CNS
SNB-75 CNS = test system: SNB-75 CNS
SR leukemia = test system: SR leukemia
SW-620 colon = test system: SW-620 colon
T-47D breast = test system: T-47D breast
TK-10 renal = test system: TK-10 renal
U251 CNS = test system: U251 CNS
UACC-257 melanoma = test system: UACC-257 melanoma
UACC-62 melanoma = test system: UACC-62 melanoma
UO-31 renal = test system: UO-31 renal

In the case of C#CC(=O)N(c1ccc(OC)cc1OC)C(C(=O)NCC(=O)OCC)c1cccs1 (stereo unspecified), the GI50 (786-0 renal) is reported as 19.1 nM, the TGI (786-0 renal) is reported as 38.9 nM and the GI50 (A498 renal) is reported as 215 nM. For the same compound, the TGI (A498 renal) was 541 nM, the GI50 (A549 NSCLC) was 5560 nM and the TGI (A549 NSCLC) was 31700 nM. It also gave a GI50 (ACHN renal) of 114 nM, a TGI (ACHN renal) of 1250 nM and a GI50 (BT-549 breast) of 318 nM. For the same compound, the TGI (BT-549 breast) was 1190 nM, the GI50 (CAKI-1 renal) was 187 nM and the TGI (CAKI-1 renal) was 901 nM. It also gave a GI50 (CCRF-CEM leukemia) of 27.7 nM, a TGI (CCRF-CEM leukemia) of 81 nM and a GI50 (COLO 205 colon) of 1810 nM. It also gave a TGI (COLO 205 colon) of 3740 nM, a GI50 (DU-145 prostate) of 436 nM and a TGI (DU-145 prostate) of 4020 nM. It also gave a GI50 (EKVX NSCLC) of 260 nM, a TGI (EKVX NSCLC) of 1320 nM and a GI50 (HCC-2998 colon) of 4980 nM. It also gave a TGI (HCC-2998 colon) of 17700 nM, a GI50 (HCT-116 colon) of 1580 nM and a TGI (HCT-116 colon) of 3420 nM. It also gave a GI50 (HCT-15 colon) of 759 nM, a TGI (HCT-15 colon) of 2390 nM and a GI50 (HL-60(TB) leukemia) of 18.7 nM. The TGI (HL-60(TB) leukemia) was 38.7 nM, the GI50 (HOP-62 NSCLC) was 436 nM and the TGI (HOP-62 NSCLC) was 2280 nM. It also gave a GI50 (HOP-92 NSCLC) of 31.3 nM, a TGI (HOP-92 NSCLC) of 110 nM and a GI50 (HS 578T breast) of 444 nM. The TGI (HS 578T breast) was 3260 nM, the GI50 (HT29 colon) was 241 nM and the TGI (HT29 colon) was 610 nM. The GI50 (IGROV1 ovarian) was 30 nM, the TGI (IGROV1 ovarian) was 97.9 nM and the GI50 (K-562 leukemia) was 594 nM. It also gave a TGI (K-562 leukemia) of 2960 nM, a GI50 (KM12 colon) of 372 nM and a TGI (KM12 colon) of 2240 nM. For the same compound, the GI50 (LOX IMVI melanoma) was under 12.5 nM, the TGI (LOX IMVI melanoma) was under 18.5 nM and the GI50 (M14 melanoma) was 1880 nM. It also gave a TGI (M14 melanoma) of 4540 nM, a GI50 (MALME-3M melanoma) of 66 nM and a TGI (MALME-3M melanoma) of 164 nM. It also gave a GI50 (MCF7 breast) of 2040 nM, a TGI (MCF7 breast) of 9100 nM and a GI50 (MDA-MB-231 breast) of 173 nM. For the same compound, the TGI (MDA-MB-231 breast) was 1140 nM, the GI50 (MDA-MB-435) was 3800 nM and the TGI (MDA-MB-435) was 16200 nM. It also gave a GI50 (MOLT-4 leukemia) of 375 nM, a TGI (MOLT-4 leukemia) of 1950 nM and a GI50 (NCI-H226 lung) of 11300 nM. The TGI (NCI-H226 lung) was 38000 nM, the GI50 (NCI-H23 lung) was 257 nM and the TGI (NCI-H23 lung) was 1070 nM. For the same compound, the GI50 (NCI-H460 lung) was 717 nM, the TGI (NCI-H460 lung) was 6840 nM and the GI50 (NCI-H522 lung) was 83.1 nM. It also gave a TGI (NCI-H522 lung) of 258 nM, a GI50 (NCI/ADR-RES ovarian) of 177 nM and a TGI (NCI/ADR-RES ovarian) of 813 nM. It also gave a GI50 (OVCAR-3 ovarian) of 160 nM, a TGI (OVCAR-3 ovarian) of 528 nM and a GI50 (OVCAR-4 ovarian) of 1750 nM. It also gave a TGI (OVCAR-4 ovarian) of 3970 nM, a GI50 (OVCAR-5 ovarian) of 574 nM and a TGI (OVCAR-5 ovarian) of 2330 nM. It also gave a GI50 (OVCAR-8 ovarian) of 970 nM, a TGI (OVCAR-8 ovarian) of 17900 nM and a GI50 (PC-3 prostate) of 871 nM. For the same compound, the TGI (PC-3 prostate) was 7880 nM, the GI50 (RPMI-8226 leukemia) was 44.9 nM and the TGI (RPMI-8226 leukemia) was 193 nM. The GI50 (RXF 393 renal) was 271 nM, the TGI (RXF 393 renal) was 1010 nM and the GI50 (SF-268 CNS) was 326 nM. It also gave a TGI (SF-268 CNS) of 1170 nM, a GI50 (SF-295 CNS) of 183 nM and a TGI (SF-295 CNS) of 362 nM. For the same compound, the GI50 (SF-539 CNS) was 56.7 nM, the TGI (SF-539 CNS) was 110 nM and the GI50 (SK-MEL-2 melanoma) was 11000 nM. It also gave a TGI (SK-MEL-2 melanoma) of 26200 nM, a GI50 (SK-MEL-28 melanoma) of 2260 nM and a TGI (SK-MEL-28 melanoma) of 6030 nM. For the same compound, the GI50 (SK-MEL-5 melanoma) was 8820 nM, the TGI (SK-MEL-5 melanoma) was 21300 nM and the GI50 (SK-OV-3 ovarian) was 1820 nM. It also gave a TGI (SK-OV-3 ovarian) of 3400 nM, a GI50 (SN12C renal) of 2210 nM and a TGI (SN12C renal) of 16500 nM. For the same compound, the GI50 (SNB-19 CNS) was 2420 nM, the TGI (SNB-19 CNS) was 8080 nM and the GI50 (SNB-75 CNS) was 152 nM. It also gave a TGI (SNB-75 CNS) of 399 nM, a GI50 (SR leukemia) of 22 nM and a TGI (SR leukemia) of 52.8 nM. The GI50 (SW-620 colon) was 1270 nM, the TGI (SW-620 colon) was 3050 nM and the GI50 (T-47D breast) was 2010 nM. It also gave a TGI (T-47D breast) of 5100 nM, a GI50 (TK-10 renal) of 3960 nM and a TGI (TK-10 renal) of 10700 nM. It also gave a GI50 (U251 CNS) of 445 nM, a TGI (U251 CNS) of 1260 nM and a GI50 (UACC-257 melanoma) of 3290 nM. For the same compound, the TGI (UACC-257 melanoma) was 13000 nM, the GI50 (UACC-62 melanoma) was 1470 nM and the TGI (UACC-62 melanoma) was 5810 nM. The GI50 (UO-31 renal) was 16.7 nM and the TGI (UO-31 renal) was 33.9 nM.
